Measured values taken from patent US6294526A, “Use of flavone derivatives for induction of β-lactam-sensitivity of MRSA” (priority 1998, dated 2001).
≈ marks a conversion by molar mass, not a printed value. Like-named read-outs stand apart in the source and are kept apart here.

Tests used:
MRSA and MSSA = experiment: antibacterial activity (MIC) by agar plate dilution method, MRSA and MSSA strains together; type: cell-based, Staphylococcus aureus; conditions: MRSA and MSSA, Table 2
Experimental: The screening of the present invention may be carried out according to the agar plate dilution method designated by the Japan Society of Chemotherapy (Chemotherapy 29(1), 76-79 (1981)). Mueller-Hinton agar base semi-synthetic medium may be used for a plate culture medium for a sensitivity test together with an inoculating bacteria solution which may be prepared by culturing bacteria to be tested at 37° C. for 20 hours diluted with 8.5% by isotonic sodium chloride solution to 10^6 CFU/ml. Diluted β-lactam solutions are prepared by two times serial dilution. 1 ml of the diluted β-lactam solution and 1 ml of a predetermined concentration of a sample to be tested are added to 8 ml of the plate culture medium for a sensitivity test. To the resultant plate culture medium for sensitivity test, the bacteria are inoculated using a microplanter (SAKUMASEISAKUSYO Co.), cultured for 20 hours at 37° C. followed by assessing for a minimum inhibition concentration (MIC). […]
Antibacterial activity is determined for flavones including flavone, flavonol, flavanone, isoflavone, catechin and calchone, as follows:
(§1) Flavones were dissolved in methanol and the others were dissolved in 0.1 N NaOH. A method for determination of antibacterial activity is, as described above, an agar plate dilution method designated by the Japan Society of Chemotherapy (Chemotherapy 29(1), 76-79 (1981)) to determine MIC value. MIC80 is a concentration at which a strain is prohibited to proliferate by 80% and MIC50 is a concentration at which a strain is prohibited to proliferate by 50%.

MRSA [1] = experiment: antibacterial activity of antibiotics alone and in the presence of apigenin (4 μg/ml), MRSA; type: cell-based, methicillin-resistant Staphylococcus aureus; conditions: apigenin 4 μg/ml or less than its MIC
Experimental: (§2) The screening of the present invention may be carried out according to the agar plate dilution method designated by the Japan Society of Chemotherapy (Chemotherapy 29(1), 76-79 (1981)). Mueller-Hinton agar base semi-synthetic medium may be used for a plate culture medium for a sensitivity test together with an inoculating bacteria solution which may be prepared by culturing bacteria to be tested at 37° C. for 20 hours diluted with 8.5% by isotonic sodium chloride solution to 10^6 CFU/ml. Diluted β-lactam solutions are prepared by two times serial dilution. 1 ml of the diluted β-lactam solution and 1 ml of a predetermined concentration of a sample to be tested are added to 8 ml of the plate culture medium for a sensitivity test. To the resultant plate culture medium for sensitivity test, the bacteria are inoculated using a microplanter (SAKUMASEISAKUSYO Co.), cultured for 20 hours at 37° C. followed by assessing for a minimum inhibition concentration (MIC).
(D) Then use of 4 μg/ml of apigenin and other antibiotics at the same time was studied. The antibiotics are penicillin , ampicillin, cephalothin, cefoxitin, cefuroxime, cefotaxime, vancomycin, streptomycin, chloramphenicol, kanamycin, erythromycin, nalixic acid and tetracycline.

MSSA = experiment: antibacterial activity (MIC) by agar plate dilution method, MSSA strains; type: cell-based, Methicillin-sensitive Staphylooccus aureus
Experimental: as §2
(§3) (A) Antibacterial activities of ether extract from Scutellaria barbata, SB-1 (isolated from Scutellaria barbata), apigenin (authentic sample) and luteolin (authentic sample) were shown in Table 1.
as §1

MRSA [2] = experiment: antibacterial activity (MIC) by agar plate dilution method, MRSA strains; type: cell-based, methicillin-resistant Staphylococcus aureus
Experimental: as §2, §3, §1

- MIC (MSSA; MSSA strain No. 21): > 250 µg/mL
- MIC (MSSA; MSSA strain No. 22): > 250 µg/mL
- MIC (MSSA; MSSA strain No. 24): 3.9 µg/mL (≈ 14.4 µM)
- MIC (MSSA; MSSA strain No. 24, listed as SB-1): 31.3 µg/mL (≈ 116 µM)
- MIC (MSSA; MSSA strain No. 25): 3.9 µg/mL (≈ 14.4 µM)
- MIC (MSSA; MSSA strain No. 27): 15.6 µg/mL (≈ 57.7 µM)
- MIC (MSSA; MSSA strain No. 27, listed as SB-1): 31.3 µg/mL (≈ 116 µM)
- MIC50 (MSSA; Staphylococcus aureus, 20 h, MSSA (7 strains), read-out: MIC50): 15.6 µg/mL (≈ 57.7 µM)
- MIC (MSSA; Staphylococcus aureus, MSSA, 20 h, MSSA strain No. 21, read-out: MIC): 250 µg/mL (≈ 925 µM)
- MIC (MSSA; Staphylococcus aureus, MSSA, 20 h, MSSA strain No. 22, read-out: MIC): 250 µg/mL (≈ 925 µM)
- MIC (MSSA; Staphylococcus aureus, MSSA, 20 h, MSSA strain No. 23, read-out: MIC): 15.6 µg/mL (≈ 57.7 µM)
- MIC (MSSA; Staphylococcus aureus, MSSA, 20 h, MSSA strain No. 25, read-out: MIC): 7.8 µg/mL (≈ 28.9 µM)
- MIC (MSSA; Staphylococcus aureus, MSSA, 20 h, MSSA strain No. 26, read-out: MIC): 15.6 µg/mL (≈ 57.7 µM)
- MIC (MRSA [2]; MRSA strain No. 1): 7.8 µg/mL (≈ 28.9 µM)
- MIC (MRSA [2]; MRSA strain No. 2): 3.9 µg/mL (≈ 14.4 µM)
- MIC (MRSA [2]; MRSA strain No. 3): 7.8 µg/mL (≈ 28.9 µM)
- MIC (MRSA [2]; MRSA strain No. 4): 7.8 µg/mL (≈ 28.9 µM)
- MIC (MRSA [2]; MRSA strain No. 5): 3.9 µg/mL (≈ 14.4 µM)
- MIC (MRSA [2]; MRSA strain No. 6): 3.9 µg/mL (≈ 14.4 µM)
- MIC (MRSA [2]; MRSA strain No. 8): 3.9 µg/mL (≈ 14.4 µM)
- MIC (MRSA [2]; MRSA strain No. 9): 3.9 µg/mL (≈ 14.4 µM)
- MIC (MRSA [2]; MRSA strain No. 9, listed as SB-1): 15.6 µg/mL (≈ 57.7 µM)
- MIC (MRSA [2]; MRSA strain No. 13): 7.8 µg/mL (≈ 28.9 µM)
- MIC (MRSA [2]; MRSA strain No. 13, listed as SB-1): 31.3 µg/mL (≈ 116 µM)
- MIC (MRSA [2]; MRSA strain No. 14): 7.8 µg/mL (≈ 28.9 µM)
- MIC (MRSA [2]; MRSA strain No. 14, listed as SB-1): 31.3 µg/mL (≈ 116 µM)
- MIC (MRSA [2]; MRSA strain No. 15): 7.8 µg/mL (≈ 28.9 µM)
- MIC (MRSA [2]; MRSA strain No. 16): 7.8 µg/mL (≈ 28.9 µM)
- MIC (MRSA [2]; MRSA strain No. 17): 3.9 µg/mL (≈ 14.4 µM)
- MIC50 (MRSA [2]; Staphylococcus aureus, 20 h, MRSA (20 strains), read-out: MIC50): 7.8 µg/mL (≈ 28.9 µM)
- MIC (MRSA [2]; Staphylococcus aureus, MRSA, 20 h, MRSA strain No. 1, read-out: MIC): 15.6 µg/mL (≈ 57.7 µM)
- MIC (MRSA [2]; Staphylococcus aureus, MRSA, 20 h, MRSA strain No. 2, read-out: MIC): 7.8 µg/mL (≈ 28.9 µM)
- MIC (MRSA [2]; Staphylococcus aureus, MRSA, 20 h, MRSA strain No. 3, read-out: MIC): 15.6 µg/mL (≈ 57.7 µM)
- MIC (MRSA [2]; Staphylococcus aureus, MRSA, 20 h, MRSA strain No. 4, read-out: MIC): 15.6 µg/mL (≈ 57.7 µM)
- MIC (MRSA [2]; Staphylococcus aureus, MRSA, 20 h, MRSA strain No. 5, read-out: MIC): 7.8 µg/mL (≈ 28.9 µM)
- MIC (MRSA [2]; Staphylococcus aureus, MRSA, 20 h, MRSA strain No. 6, read-out: MIC): 7.8 µg/mL (≈ 28.9 µM)
- MIC (MRSA [2]; Staphylococcus aureus, MRSA, 20 h, MRSA strain No. 7, read-out: MIC): 3.9 µg/mL (≈ 14.4 µM)
- MIC (MRSA [2]; Staphylococcus aureus, MRSA, 20 h, MRSA strain No. 8, read-out: MIC): 7.8 µg/mL (≈ 28.9 µM)
- MIC (MRSA [2]; Staphylococcus aureus, MRSA, 20 h, MRSA strain No. 10, read-out: MIC): 15.6 µg/mL (≈ 57.7 µM)
- MIC (MRSA [2]; Staphylococcus aureus, MRSA, 20 h, MRSA strain No. 11, read-out: MIC): > 250 µg/mL
- MIC (MRSA [2]; Staphylococcus aureus, MRSA, 20 h, MRSA strain No. 12, read-out: MIC): > 250 µg/mL
- MIC (MRSA [2]; Staphylococcus aureus, MRSA, 20 h, MRSA strain No. 15, read-out: MIC): 15.6 µg/mL (≈ 57.7 µM)
- MIC (MRSA [2]; Staphylococcus aureus, MRSA, 20 h, MRSA strain No. 16, read-out: MIC): 15.6 µg/mL (≈ 57.7 µM)
- MIC (MRSA [2]; Staphylococcus aureus, MRSA, 20 h, MRSA strain No. 17, read-out: MIC): 7.8 µg/mL (≈ 28.9 µM)
- MIC (MRSA [2]; Staphylococcus aureus, MRSA, 20 h, MRSA strain No. 18, read-out: MIC): > 250 µg/mL
- MIC (MRSA [2]; Staphylococcus aureus, MRSA, 20 h, MRSA strain No. 19, read-out: MIC): > 250 µg/mL
- MIC (MRSA [2]; Staphylococcus aureus, MRSA, 20 h, MRSA strain No. 20, read-out: MIC): 31.3 µg/mL (≈ 116 µM)
Compound: O=c1cc(-c2ccc(O)cc2)oc2cc(O)cc(O)c12 [Apigenin, apigenin]
- antibacterial activity (in words) (MRSA and MSSA): showed antibacterial activity
- inhibition of β-lactam resistant MRSA / improvement of antibacterial effect with apigenin (in words) (MRSA [1]): could improve antibacterial effect of methicillin on MRSA
